Test results as given in article PMC7729195, “Pharmacodynamic Functions of Synthetic Derivatives for Treatment of Methicillin-Resistant Staphylococcus aureus (MRSA) and Mycobacterium tuberculosis” (Frontiers in Microbiology, 2020).
Converted amounts (≈) assume the structure as drawn. “And” between values parts separate entries of the source, which are not always exact repeats. Identical values can stand only once.

Columns and labels:
P. aeruginosa PAO1 = experiment: Bacterial inhibition assay (resazurin), MIC against P. aeruginosa; format: cell-based, Pseudomonas aeruginosa; details: synthetic compounds, 18 h incubation; for MIC: Pseudomonas aeruginosa, PAO1
M. tuberculosis = experiment: Time-kill study against M. tuberculosis; format: cell-based, Mycobacterium tuberculosis; details: for Effect on bacterial viability: compound treatment, day 6; for Killing effect with rifampicin: rifampicin plus compound, day 7 of treatment
Procedure: Time-kill experiments were performed by culturing MRSA and M. tuberculosis in liquid medium in the presence of six synthesized sample concentrations in doubling dilutions ranging from 8 to 0.001 × MIC and 2 × MIC for both bacteria, respectively. Growth curves were initially generated to confirm that bacteria would reach a stable early- to mid-log phase after 2 and 48 h of pre-incubation in antimicrobial-free both medium, respectively. Samples were taken in different incubation times after drug exposure at 0, 2, 4, 6, 8, and 24 h for MRSA and 24, 48 h, and 4 and 6 days for M. tuberculosis and then plated onto agar plates for CFU determination. The experiments were carried out in duplicate and repeated three times.

[1] = tested on: A549, THP-1, HepG2 and HEK 293 cell lines; format: cell-based, human
Procedure: (§1) Human alveolar epithelial cells (A549), ([Giard et al., 1973]), Madin-Darby canine kidney epithelial cells (MDCK), ([Gaush et al., 1966]), human leukemia cells (THP-1) ([Tsuchiya et al., 1980]), human hepatocellular carcinoma cells (Hep-G2), ([Aden et al., 1979]), and human embryonic kidney cells 293 (HEK293) ([Graham et al., 1977]) were grown and differentiated in complete RPMI (Roswell Park Memorial Institute Medium) and DMEM (Dulbecco’s Modified Eagle’s medium) tissue culture media (RPMIc and DMEMc). To determine toxicity of the AIMS extract library, 2 × 10^5 of each cell type were added to a 96-well plate and left for 48 h at 37°C to adhere. Extract samples at a final concentration of 0.5 mg mL^–1 were added to the wells, then incubated for 7 days in a humidified 5% CO2 incubator at 37°C. Then resazurin (10 μL of 0.05% w/v) was added, and after 4 h, fluorescence measured as described previously. Cell viability was calculated as percentage fluorescence relative to untreated cells.

MRSA [2] = experiment: Minimum bactericidal concentration (MBC) for MRSA; format: cell-based, Staphylococcus aureus; design: unit not given here; details: sub-culture on agar, 18 h
M. tuberculosis H37Rv [3] = experiment: Checkerboard assay with rifampicin against M. tuberculosis; format: cell-based, Mycobacterium tuberculosis; details: for Drug–drug interactions / FIC: M. tuberculosis, compound with rifampicin; for MIC50: Mycobacterium tuberculosis, H37RV, read-out: Compound alone MIC50 for M. tuberculosis
resistant strains = experiment: MIC against resistant strains; format: cell-based; details: read-out: MIC against resistant strains
MRSA [4] = experiment: Bacterial inhibition assay (resazurin), MIC against MRSA; format: cell-based, Staphylococcus aureus; design: MIC for MRSA: unit not given here; details: for MIC: Staphylococcus aureus, MRSA, synthetic compounds, 18 h incubation; for MIC for MRSA: Table 6 summary
E. coli EC958 = experiment: Bacterial inhibition assay (resazurin), MIC against E. coli; format: cell-based, Escherichia coli; details: synthetic compounds, 18 h incubation; for MIC: Escherichia coli, EC958
M. tuberculosis H37Rv [5] = experiment: Bacterial inhibition assay (resazurin), MIC against M. tuberculosis; format: cell-based, Mycobacterium tuberculosis; design: MIC for TB. H37Rv: unit not given here; details: for MIC: Mycobacterium tuberculosis, H37RV, 168 h; for MIC / MIC M. tuberculosis: synthetic compounds, 7 days incubation; for MIC for TB. H37Rv: Table 6 summary
TB. H37Rv = experiment: Minimum bactericidal concentration (MBC) for TB; format: cell-based, Mycobacterium tuberculosis; design: unit not given here; details: sub-culture on agar, 7 days
MRSA [6] = experiment: Checkerboard assay with vancomycin against MRSA; format: cell-based, Staphylococcus aureus; details: for FIC / MIC50 / Drug–drug interactions: MRSA; for FIC / Drug–drug interactions: compound with vancomycin; for MIC50: Staphylococcus aureus, compound alone; for Activity against MRSA in combination with vancomycin: vancomycin plus compound
HEK 293 = format: cell-based; details: human, 7 days
Procedure: as §1

THP1 = format: cell-based; details: human, 7 days
Procedure: as §1

HepG2 = format: cell-based; details: human, 7 days
Procedure: as §1

A549 = format: cell-based; details: human, 7 days
Procedure: as §1

MRSA [7] = experiment: Time-kill study against MRSA; format: cell-based, Staphylococcus aureus; details: for Bactericidal character: conclusion of time-kill studies; for Effect of sub-inhibitory combination with vancomycin on MRSA growth: sub-inhibitory combinations with vancomycin; for Concentration at which killing was observed: time-kill, MRSA
[8] = compound 12.5 μM plus vancomycin 50 μg mL^–1

| SMILES | MIC (P. aeruginosa PAO1) [µM] | Effect on bacterial viability (M. tuberculosis) | Toxicity against THP1 and/or HEK 293 cells [1] | MBC for MRSA (MRSA [2]) | Drug–drug interactions (M. tuberculosis H37Rv [3]) | FIC (M. tuberculosis H37Rv [3]) | MIC50 (M. tuberculosis H37Rv [3]) [µM] | MIC (MRSA [4]) [µM] | MIC for MRSA (MRSA [4]) | MIC (E. coli EC958) [µM] | MIC (M. tuberculosis H37Rv [5]) [µM] | MIC for TB. H37Rv (M. tuberculosis H37Rv [5]) | MBC for TB. H37Rv (TB. H37Rv) | FIC (MRSA [6]) | MIC50 (MRSA [6]) [µM] | Minimum toxicity concentration of drug (MTC) HEK 293 (HEK 293) [µM] | Minimum toxicity concentration of drug (MTC) THP1 (THP1) [µM] | Minimum toxicity concentration of drug (MTC) HepG2 (HepG2) [µM] | Minimum toxicity concentration of drug (MTC) A549 (A549) [µM] | Effect of sub-inhibitory combination with vancomycin on MRSA growth (MRSA [7]) | further results |
| --- | --- | --- | --- | --- | --- | --- | --- | --- | --- | --- | --- | --- | --- | --- | --- | --- | --- | --- | --- | --- | --- |
| CCCCCCCCN(CCCCCCCC)c1cccc(C)c1 [Compound 1a, N,N-Dioctyl-3-Methylaniline] | 6.2 ± 9 (≈ 2.06 µg/mL) | significant reduction in bacterial viability | some toxicity | 25 | Indifference (0.25–4 indifferent or additive activity) | 1.1 | 1.5 | 12.5 ± 1 (≈ 4.14 µg/mL) | 12.5 | 12.5 ± 5 (≈ 4.14 µg/mL) | 1.5 ± 3 (≈ 0.497 µg/mL) | 1.5 | 25 | 0.45 | 12.5 | 50 ± 0.9 | 50 ± 2.0 | >100 ± 3.0 | >100 ± 4.1 | substantially inhibited growth of MRSA | MTC on all cell lines tested ([1]; human, 7 days): 50 to 100 µM; MIC (resistant strains): 6.7 to 20 µM (≈ 2.22 to 6.63 µg/mL); Activity against MRSA in combination with vancomycin (MRSA [6]): bactericidal activity; Bactericidal character (MRSA [7]): strongly bactericidal and concentration dependent |
| CCCCCCCCN(CCCCCCCC)c1ccc(C)cc1 [Compound 1b, N,N-Dioctyl-4-Methylaniline] | 100 ± 6.5 (≈ 33.2 µg/mL) | significant reduction in bacterial viability | – | 200 | Indifference (0.25–4 indifferent or additive activity) | 1.1 | 6.25 | 100 ± 5.4 (≈ 33.2 µg/mL) | 100 | 100 ± 1 (≈ 33.2 µg/mL) | 25 ± 1 (≈ 8.29 µg/mL) | 6.25 | 100 | 1.2 | 100 | >100 ± 6.0 | >100 ± 2.0 | >100 ± 0.9 | >100 ± 3.8 | substantially inhibited growth of MRSA | Toxicity against all four cell lines [1]: low toxicity; Drug–drug interactions (MRSA [6]): Indifference (0.25–4 indifferent or additive activity); Time-kill effect against log-phase MRSA (MRSA [7]; 100 μM): rapidly reduced growth by 1 h post-treatment; Effect on regrowth of MRSA (MRSA [7]; [8]): substantially reduced regrowth |
| CCCCCCCCN(CCCCCCCC)Cc1ccccc1 [Compound 2a, N-Benzyl-N-Octyloctan-1Amine] | 50 ± 1 (≈ 16.6 µg/mL) | significant reduction in bacterial viability | some toxicity | 100 | Indifference (0.25–4 indifferent or additive activity) | 1.1 | 1.5 | 12.5 ± 0.7 (≈ 4.14 µg/mL) | 12.5 | 50 ± 1 (≈ 16.6 µg/mL) | 1.5 ± 1 (≈ 0.497 µg/mL) | 1.5 | 25 | 0.328 and 0.33 | 12.5 | 50 ± 4.0 | 6.5 ± 0.8 | >100 ± 0.8 | >100 ± 1.0 | substantially inhibited growth of MRSA | Activity against MRSA in combination with vancomycin (MRSA [6]): bactericidal activity; Time to bactericidal effect (MRSA [7]; [8]): 1 h; Net-growth of MRSA (MRSA [7]; compound 1.5 to 0.1 μM plus vancomycin 50 μg mL^–1, at 24 h): up to 102 CFU mL^–1; Bactericidal character (MRSA [7]): strongly bactericidal and concentration dependent |
| CCCCCCCCCCN(CCCCCC)CCCCCC [Compound 3, N,N-Dihexyldecan-1-Amine] | 3.1 (≈ 1.01 µg/mL) | significant reduction in bacterial viability | some toxicity | 12.5 | – | 0.4 | 1.5 | 12.5 ± 1 (≈ 4.07 µg/mL) | 12.5 | 6.2 (≈ 2.02 µg/mL) | 3.1 (≈ 1.01 µg/mL) | 1.5 | 6.25 | 1.2 | 12.5 | 25 ± 2.0 | 50 ± 5.0 | >100 ± 1.0 | >100 ± 2.0 | substantially inhibited growth of MRSA | MIC P. aeruginosa (P. aeruginosa PAO1): 3.1 ± 5.0 µM (≈ 1.01 µg/mL); Killing effect with rifampicin (M. tuberculosis): comparable killing effects; Effect against M. tuberculosis in combination with rifampicin (M. tuberculosis H37Rv [3]; rifampicin plus compound): synergistic or bactericidal effects; MIC E. coli (E. coli EC958): 6.2 ± 1.0 µM (≈ 2.02 µg/mL); MIC M. tuberculosis (M. tuberculosis H37Rv [5]): 3.1 ± 0.7 µM (≈ 1.01 µg/mL); Drug–drug interactions (MRSA [6]): Indifference (0.25–4 indifferent or additive activity); Bactericidal character (MRSA [7]): strongly bactericidal and concentration dependent; Concentration at which killing was observed (MRSA [7]): 12.5 μg mL^–1 |
| CCCCCCCCN(CCCCCCCC)CCCCCCCC [Compound 13, N,N,N-Trioctylammonium Chloride] | 25 ± 4 | – | some toxicity | 100 | Indifference (0.25–4 indifferent or additive activity) | 1.1 | 0.02 | 12.5 ± 2.7 | 12.5 | 25 ± 2 | 0.02 | 0.02 | 0.39 | – | 12.5 | 6.5 ± 3.0 | 3.1 ± 0.7 | >100 ± 5.2 | 50 ± 1.4 | substantially inhibited growth of MRSA | Killing effect with rifampicin (M. tuberculosis): comparable killing effects; MIC (resistant strains): ≥ 0.24 µM; MIC M. tuberculosis (M. tuberculosis H37Rv [5]): 0.02 ± 1.1 µM; Drug–drug interactions (MRSA [6]): Indifference (0.25–4 indifferent or additive activity); Concentration at which killing was observed (MRSA [7]): > 100 μg mL^–1 |
| CN[C@H](CC(C)C)C(=O)N[C@H]1C(=O)N[C@@H](CC(N)=O)C(=O)N[C@H]2C(=O)N[C@H]3C(=O)N[C@H](C(=O)N[C@H](C(=O)O)c4cc(O)cc(O)c4-c4cc3ccc4O)[C@H](O)c3ccc(c(Cl)c3)Oc3cc2cc(c3O[C@@H]2O[C@H](CO)[C@@H](O)[C@H](O)[C@H]2O[C@H]2C[C@](C)(N)[C@H](O)[C@H](C)O2)Oc2ccc(cc2Cl)[C@H]1O [vancomycin, Vancomycin, reference compound] | – | – | – | – | – | – | – | – | – | – | – | – | – | – | – | – | – | – | – | – | Viable count after regrowth (MRSA [7]; 50 μg mL^–1, after 24h): 106 CFU mL^–1; Time-kill effect against MRSA (MRSA [7]; 100 μg mL^–1 at 24 h): bactericidal effect; Time-kill effect against MRSA compared to untreated bacteria (MRSA [7]; concentrations up to 50 μg mL^–1): did not have an antibacterial effect |
